Measurements taken from US20240082212A1, “USE OF MDMA FOR TREATMENT OF STRESS-RELATED DISORDERS” (priority 2022, published 2024).
Where two headings read alike, the source gives them in different places.

How the values were obtained:
cortical neurons = assay: Neurite outgrowth in embryonic rat cortical neuron cultures; type: cell-based; conditions: 3 days
From the text: Female Wistar rats of 17 days gestation were killed by cervical dislocation and the fetuses (typically 6 to 8 in number) were removed from the uteri. Fetal brains were placed in ice-cold medium of Leibovitz (L15, Gibco, France). Cortex was dissected and meninges were carefully removed. The cortical neurons were dissociated by trypsinization (trypsin-EDTA, Gibco) in the presence of DNAse I (Roche, France). The reaction was stopped by addition of Dulbecco's Modified Eagle Medium (DMEM; Gibco) with 10% of fetal bovine serum (FBS; Gibco). The suspension was triturated with a 10-ml pipette and a 21-gauge needle syringe and centrifuged. The pellet of dissociated cells was resuspended in a medium consisting of Neurobasal (Gibco) supplemented with 2% B27 supplement (Gibco), 0.5 mM L-Glutamine (Gibco), and an antibiotic-antimycotic mixture. Viable cells were counted in a Neubauer cytometer and cells were seeded in 96-well plates (Costar) precoated with poly-L-lysine at 10,000 cells/well. […] Stock solutions were prepared in sterile water at 10 mM and stored at −20° C. until used. Further dilutions were prepared in culture in the medium on the day of the treatment. 0.1% Sterile water was present in all tested conditions.
The experimental protocol was performed in two independent cultures (i.e., from two different pregnant rats). For each culture, each condition was tested in sextuplet (6 wells per condition per culture for a total of 12 wells per condition). […] After three days of plating and compound treatment (Day 3), cultures were fixed with paraformaldehyde in phosphate buffered saline at 4° C. (PBS, 4%, Sigma). All subsequent steps were performed at room temperature. Cells were successively permeabilized for 30 minutes using 0.1% triton, saturated with PBS containing 3% bovine serum albumin (BSA) and incubated for 1 hour with anti-beta III tubulin antibody (T5168, Sigma). […] Finally, nuclei were stained with 4′-6-diamidino-2-phenylindole (DAPI). After rinsing the cells with PBS, the plate was imaged and neurite networks were examined and analyzed using a High-Content Screening platform (CellInsight CXS, Thermo Scientific) with integrated Photometrics high-resolution fluorescent camera, Olympus objective (10×) and HCS Studio Cell Analysis Software. Approximately 2,000 neurons per well were analyzed using a validated cortex neuron outgrowth algorithm that utilizes parameters optimized for analysis of embryonic rat cortical neuron cultures. The HCS Studio Cell Analysis Software output included values for neurite total count (#), neurite total length (μm) and total number of branch points (#) for each of the 6 wells per culture. The evaluation of neurite outgrowth was performed using the average number of neurites per neuron (#), the average of total neurite length per neuron (μm) and the average number of branch points per neuron (#) across 12 wells. Data also was transformed to percent (%) of the average vehicle control value. Results were expressed as mean (±s.e.m.) of the transformed (% of vehicle control) data. Statistical analyses were performed on transformed percent of the average vehicle control data for each measure for each test article using one-way analysis of variance (Anova, StatView). Where applicable, Dunnett's test was used for multiple pairwise comparisons to the negative control (vehicle) condition. […] The level of significance was set at p value less than or equal to 0.05 (*p<0.05).

[1] = Rat plasma pharmacokinetics after cumulative (QID) SC injections; conditions: for half-life: T1/2, male rat plasma
Serotonin 5-HT2B = Serotonin 5-HT2B (Homo sapiens, UniProt P41595); assay: Eurofins Panlabs radioligand binding panel, serotonin 5-HT2B; conditions: for IC50: IC50, 10 half-log concentrations; for IC50 / Ki: 0.3 nM to 10 μM, duplicate; for Ki: 10 half-log concentrations
[2] = any tested concentration (0.001 to 10000 nM), vs vehicle
[3] = from 5 to 10 mg/kg/day S-MDMA, QID SC
[4] = from 5 to 20 mg/kg/day S-MDMA, QID SC
[5] = male rat plasma, parent analyte, QID SC, total 5 mg/kg/day
[6] = male rat plasma, parent analyte, QID SC, total 10 mg/kg/day
[7] = male rat plasma, parent analyte, QID SC, total 20 mg/kg/day
[8] = male rat plasma, metabolite S-MDA after QID SC S-MDMA, total 5 mg/kg/day
[9] = male rat plasma, metabolite after QID SC parent, total 10 mg/kg/day
[10] = male rat plasma, metabolite after QID SC parent, total 20 mg/kg/day
[11] = 10 μM, vs 0.1% sterile water vehicle

Chain of Serotonin 5-HT2B (P41595 whole entry): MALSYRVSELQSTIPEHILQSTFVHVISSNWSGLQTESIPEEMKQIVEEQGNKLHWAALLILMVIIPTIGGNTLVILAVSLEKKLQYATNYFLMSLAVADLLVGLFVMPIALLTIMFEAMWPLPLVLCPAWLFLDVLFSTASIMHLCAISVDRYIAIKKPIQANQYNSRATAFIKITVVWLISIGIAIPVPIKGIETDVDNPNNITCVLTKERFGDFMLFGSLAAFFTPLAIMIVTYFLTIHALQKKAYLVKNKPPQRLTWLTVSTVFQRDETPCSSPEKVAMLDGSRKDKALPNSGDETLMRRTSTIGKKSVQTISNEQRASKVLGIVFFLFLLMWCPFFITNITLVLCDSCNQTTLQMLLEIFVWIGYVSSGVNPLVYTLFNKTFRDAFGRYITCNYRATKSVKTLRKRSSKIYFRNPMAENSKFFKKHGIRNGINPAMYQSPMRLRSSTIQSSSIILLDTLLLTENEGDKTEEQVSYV

## CNC(C)Cc1ccc2c(c1)OCO2 (single isomer, unassigned) [S-MDMA, S(+)-MDMA]
Cortical neurons; [2]
  neurite number (#): did not significantly alter
  neurite total length (μm): did not significantly alter
  total number of branch points (#): did not significantly alter
[1]; [3]
  dose dependence of Cmax and AUC0-27 hr: approximately dose proportional manner
[1]; [4]
  dose dependence of Cmax and AUC0-27 hr: greater than dose proportional manner
[1]; male rat plasma, parent analyte (total MDMA after Rac-MDMA), QID SC, total 10 mg/kg/day of the test article
  Cmax: 1220 ng/mL
[1]; male rat plasma, parent analyte (total MDMA after Rac-MDMA), QID SC, total 20 mg/kg/day of the test article
  Cmax: 2560 ng/mL
[1]; [5]
  AUC0-27 hr/Dose: 302 *kg*ng/mL/mg
  Cmax/Dose: 89.3 kg·ng/mL/mg
  Tlast: 7 h
[1]; [6]
  AUC0-27 hr: 4130 ng·h/mL
  AUC0-27 hr/Dose: 413 *kg*ng/mL/mg
  AUCTlast: 4030 ng·h/mL
  Cmax/Dose: 122 kg·ng/mL/mg
  T1/2: 1.15 h
  Tlast: 11 h
[1]; male rat plasma, parent analyte, QID SC, total 10 mg/kg/day, time after 1st injection
  Tmax: 3.5 h
[1]; [7]
  AUC0-27 hr: 15000 ng·h/mL
  AUC0-27 hr/Dose: 748 *kg*ng/mL/mg
  AUCTlast: 15000 ng·h/mL
  Cmax/Dose: 128 kg·ng/mL/mg
  Tlast: 27 h
[1]; male, CD (Sprague Dawley), rat, plasma, sc, 5 mg/kg/day, AUC0-27 hr, male rat plasma, parent analyte, QID SC, total 5 mg/kg/day
  AUC(0-t): 1510 ng·h/mL
[1]; male, CD (Sprague Dawley), rat, plasma, sc, 5 mg/kg/day, AUCTlast, male rat plasma, parent analyte, QID SC, total 5 mg/kg/day
  AUC(0-t): 1490 ng·h/mL
[1]; male, CD (Sprague Dawley), rat, plasma, sc, 5 mg/kg/day, parent analyte, QID SC, total 5 mg/kg/day
  half-life: 0.754 h
[1]; male, CD (Sprague Dawley), rat, plasma, sc, 20 mg/kg/day, parent analyte, QID SC, total 20 mg/kg/day
  half-life: 3.17 h
[1]; male, Sprague-Dawley (CD), rat, plasma, sc, 5 mg/kg/day, Cmax, male rat plasma, parent analyte, QID SC, total 5 mg/kg/day of the test article
  Cmax: 447 ng/mL
Serotonin 5-HT2B
  IC50: 12 µM
  Ki: 7.65 µM

## C[C@H](N)Cc1ccc2c(c1)OCO2 [S-MDA, S(+)-MDA]
Cortical neurons; [2]
  neurite number (#): did not significantly alter
  neurite total length (μm): did not significantly alter
  total number of branch points (#): did not significantly alter
[1]; [3]
  dose dependence of Cmax and AUC0-27 hr: approximately dose proportional manner
[1]; [4]
  dose dependence of Cmax and AUC0-27 hr: greater than dose proportional manner
[1]; [8]
  AUC0-27 hr: 1280 ng·h/mL
  AUC0-27 hr/Dose: 256 *kg*ng/mL/mg
  AUCTlast: 1270 ng·h/mL
  Cmax: 342 ng/mL
  Cmax/Dose: 68.4 kg·ng/mL/mg
  Tlast: 9 h
  Tmax: 4 h
[1]; male rat plasma, metabolite after QID SC parent (R-MDA after R-MDMA, S-MDA after S-MDMA, total MDA after Rac-MDMA), total 10 mg/kg/day
  Cmax: 957 ng/mL
[1]; male rat plasma, metabolite after QID SC parent (R-MDA after R-MDMA, S-MDA after S-MDMA, total MDA after Rac-MDMA), total 20 mg/kg/day
  Cmax: 2500 ng/mL
[1]; [9]
  AUC0-27 hr: 6770 ng·h/mL
  AUC0-27 hr/Dose: 677 *kg*ng/mL/mg
  AUCTlast: 5180 ng·h/mL
  Cmax/Dose: 95.7 kg·ng/mL/mg
  Tlast: 11 h
  Tmax: 5 h
[1]; [10]
  AUC0-27 hr: 26300 ng·h/mL
  AUC0-27 hr/Dose: 1320 *kg*ng/mL/mg
  AUCTlast: 26300 ng·h/mL
  Cmax/Dose: 125 kg·ng/mL/mg
  Tlast: 27 h
  Tmax: 5 h
Serotonin 5-HT2B; 10 uM
  % inhibition of binding or activity: 82%

## CNC(C)Cc1ccc2c(c1)OCO2 (racemic) [Racemic MDMA, 3,4-methylenedioxymethamphetamine]
Cortical neurons; [11]
  neurite number (#): significantly increased
  neurite total length (μm): significantly increased
  total number of branch points (#): significantly increased
Serotonin 5-HT2B; 10 uM
  % inhibition of binding or activity: 85%

## CNC(C)Cc1ccc2c(c1)OCO2 (single isomer, unassigned) [R-MDMA, R(−)-3,4-methylenedioxymethamphetamine]
Cortical neurons; 0.0001 μM, vs 0.1% sterile water vehicle
  neurite number (#): significantly increased
Cortical neurons; [11]
  neurite number (#): significantly increased
  neurite total length (μm): significantly increased
  total number of branch points (#): significantly increased
[1]
  AUC(0-t): 11800 ng·h/mL
[1]; dose increase from 10 to 20 mg/kg/day of the dosed test article, QID SC
  dose dependence of Cmax and AUC0-27 hr: approximately dose proportional manner
[1]; [6]
  AUC0-27 hr/Dose: 420 *kg*ng/mL/mg
  Cmax/Dose: 114 kg·ng/mL/mg
  Tlast: 11 h
[1]; [7]
  AUC0-27 hr/Dose: 590 *kg*ng/mL/mg
  Cmax/Dose: 127 kg·ng/mL/mg
  Tlast: 11 h
[1]; male, Sprague-Dawley (CD), rat, plasma, sc, 10 mg/kg/day, AUC0-27 hr, male rat plasma, parent analyte, QID SC, total 10 mg/kg/day
  AUC(0-t): 4200 ng·h/mL
[1]; male, Sprague-Dawley (CD), rat, plasma, sc, 10 mg/kg/day, AUCTlast, male rat plasma, parent analyte, QID SC, total 10 mg/kg/day
  AUC(0-t): 4160 ng·h/mL
[1]; male, Sprague-Dawley (CD), rat, plasma, sc, 10 mg/kg/day, Cmax, male rat plasma, parent analyte (total MDMA after Rac-MDMA), QID SC, total 10 mg/kg/day of the test article
  Cmax: 1140 ng/mL
[1]; male, Sprague-Dawley (CD), rat, plasma, sc, 10 mg/kg/day, parent analyte, QID SC, total 10 mg/kg/day
  half-life: 1.01 h
[1]; male, Sprague-Dawley (CD), rat, plasma, sc, 20 mg/kg/day, AUCTlast, male rat plasma, parent analyte, QID SC, total 20 mg/kg/day
  AUC(0-t): 11300 ng·h/mL
[1]; male, Sprague-Dawley (CD), rat, plasma, sc, 20 mg/kg/day, Cmax, male rat plasma, parent analyte (total MDMA after Rac-MDMA), QID SC, total 20 mg/kg/day of the test article
  Cmax: 2550 ng/mL
Serotonin 5-HT2B; 10 uM, read-out: % inhibition of binding or activity
  inhibition at 10 µM: 79%
Serotonin 5-HT2B
  IC50: 1.4 µM
  Ki: 0.89 µM
